# Test results from PMC7144934, “Design, Synthesis and Biological Evaluation of Phenyl Urea Derivatives as IDO1 Inhibitors” (Molecules, 2020).
# “Also recorded” adds a separate entry of the source. Like-named read-outs stand apart in the source and are kept apart here.
# Key:
# [1] = molecular target: T1, Recombinant human IDO1 (rhIDO1) (Homo sapiens, UniProt P14902); experiment: Enzyme assay for IDO1 inhibition; type: biochemical; details: for IC50: 37 °C, 45 min
# T1 construct: made in house
# [2] = tested on: human IDO1; set-up: method as in earlier work; details: human IDO1/HEK 293 cells; read-out: IDO1 inhibitory activity IC50; cited from earlier work
# [3] = molecular target: T2, Recombinant human TDO (rhTDO) (Homo sapiens, UniProt P48775); experiment: Enzyme assay for TDO inhibition; type: biochemical; details: 37 °C, 45 min
# T2 construct: made in house
# Protocol: Recombinant human IDO1 and TDO were expressed and purified according to the reported procedures. The assay was performed according to the literature: A standard reaction mixture (100 µL) containing 100 mM potassium phosphate buffer (pH 6.5), 40 mM ascorbic acid (neutralized with NaOH), 200 µg/mL catalase, 20 µM methylene blue and 0.05 µM rhIDO1 or rhTDO was added to the solution containing the substrate L-tryptophan and the test sample at a determined concentration. The reaction was carried out at 37 °C for 45 min and stopped by adding 20 µL of 30% (w/v) trichloroacetic acid. After heating at 65 °C for 15 min, 100 µL of 2% (w/v) p-dimethylaminobenzaldehyde in acetic acid was added to each well. The yellow pigment derived from kynurenine was measured at 492 nm using a SYNERGY-H1 microplate reader (Biotek Instruments, Inc., Winooski, VT, USA). IC50 was analyzed using the GraphPad Prism 8.0 software (GraphPad Software, San Diego, CA, USA).
# [4] = tested on: mouse melanoma cells B16F10; experiment: B16F10 subcutaneous xenograft model; type: in vivo, mice
# Protocol: (§1) The mouse melanoma cells B16F10 were cultured and harvested in saline at 6 × 10^6 cells/0.2 mL volume. Cells (0.2 mL) were injected subcutaneously into male C57BL/6 mice at day 0 of the experiment, and treatment was initiated at day 1 following the mice enrolled randomly in control and experimental groups. For control group, 0.5% CMCNa was orally administered every day. The CTX group were administered CTX intraperitoneally at the dose of 100 mg/kg. Compound i12 was dissolved in 0.5% CMC-Na for oral treatment. After 17 days, the mice were sacrificed and the tumors were stripped and weighted. The tumor growth inhibition (TGI) was calculated as TGI = (1 − tumor weight treatment/tumor weight vehicle) × 100%. The statistical analysis was performed with GraphPad Prism 8.0 software and the significance level was evaluated with one-way ANOVA model.
# [5] = tested on: mouse pancreatic cancer cells PAN02; experiment: PAN02 pancreatic cancer subcutaneous xenograft model; type: in vivo, mice
# Protocol: as §1, with “pancreatic cancer” for “melanoma”, “PAN02” for “B16F10”, “60 mg/kg” for “100 mg/kg.”, “15” for “17”
# [6] = Single dose pharmacokinetic study in male C57BL/6 mice; type: in vivo; details: for AUC(0-inf): male, C57BL/6, mouse; for MRT inf: read-out: MRT(0–∞); for half-life: read-out: t1/2β (converted)
# Protocol: The animal Care and Welfare Committee of Institute of Materia Medica, Chinese Academy of Medical Sciences approved all animal care, housing, and laboratory procedures. Male C57BL/6 mice were used in the single dose pharmacokinetic studies. Compound i12 was prepared as a 3 mg/mL suspension with 0.5% CMC for oral use and was formulated as a 3 mg/mL solution with 10% DMSO in 20% HP-β-CD for intravenous injection. Sixteen mice were divided into two groups, 10 in the oral group and six in the intravenous group. After fasting 12 h with free access to water, mice were treated with a 3 mg/kg i.v. or 30 mg/kg oral dose of compound i12. Blood samples (50 µL) were collected at 5, 15, 30 min, 1, 2, 4, 6, 8, 12 and 24 h after oral administration and 2, 5, 15, 30 min, 1, 2, 4, 6, 8, 12 and 24 h after intravenous injection. After centrifugation, the plasma samples (20 µL) were precipitated by four volumes of acetonitrile. The supernatant were analyzed by liquid chromatography/tandem mass spectrometry with a Zorbax C18 column (50 mm × 2.1 mm, 3.5 µm). Compound detection was performed with the mass spectrometer in positive ionization mode by t-SIM: m/z 489.209 for compound i12. The pharmacokinetic parameters were calculated with WinNonlin software V6.3 using non-compartmental analysis (Pharsight Corporation, Mountain View, CA, USA).
# [7] = tested on: pathway; set-up: method as in PMID 30760888; details: Figure 1; cited from earlier work
# T2 sequence (P48775 whole entry): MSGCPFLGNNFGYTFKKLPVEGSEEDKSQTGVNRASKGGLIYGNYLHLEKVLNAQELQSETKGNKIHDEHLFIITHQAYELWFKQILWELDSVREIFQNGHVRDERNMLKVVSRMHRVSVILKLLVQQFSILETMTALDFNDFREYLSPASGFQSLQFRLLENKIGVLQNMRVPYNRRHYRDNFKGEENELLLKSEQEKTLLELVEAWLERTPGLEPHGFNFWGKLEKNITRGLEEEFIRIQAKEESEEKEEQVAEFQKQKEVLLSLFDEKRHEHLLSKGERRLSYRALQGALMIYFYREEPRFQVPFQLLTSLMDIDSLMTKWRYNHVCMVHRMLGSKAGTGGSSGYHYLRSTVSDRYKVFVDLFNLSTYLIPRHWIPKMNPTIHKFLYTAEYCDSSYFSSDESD
# T1 sequence (P14902 whole entry): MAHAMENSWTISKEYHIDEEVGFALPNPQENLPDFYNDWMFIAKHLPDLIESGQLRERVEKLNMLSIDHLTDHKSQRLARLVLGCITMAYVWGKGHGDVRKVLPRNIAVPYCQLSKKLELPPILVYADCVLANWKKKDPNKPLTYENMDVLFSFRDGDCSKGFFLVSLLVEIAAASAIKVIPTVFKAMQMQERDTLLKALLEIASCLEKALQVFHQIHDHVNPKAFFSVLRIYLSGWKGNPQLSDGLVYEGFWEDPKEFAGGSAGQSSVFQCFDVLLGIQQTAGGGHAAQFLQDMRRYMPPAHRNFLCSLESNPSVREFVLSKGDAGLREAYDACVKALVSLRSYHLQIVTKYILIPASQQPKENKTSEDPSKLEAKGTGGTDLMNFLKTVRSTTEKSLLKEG
structure (smiles),measurement,setting,value
"CC(C)CN(CC(C)C)c1ccc(C(CC(=O)O)C(F)(F)F)cc1NC(=O)Nc1ccc(F)cc1F (stereo not drawn) [BMS-E30, reference compound]",IC50,[1]; rhIDO1 enzyme assay,8.57 µM
same,IC50,[2],0.0007 µM
same,IC50,[3],> 100 µM
"CC1CC(C)CN(c2ccc(C(CC(=O)O)C(F)(F)F)cc2NC(=O)Nc2ccccc2)C1 (stereo not drawn) [i1, 3-[4-(3,5-dimethylpiperidin-1-yl)-3-(3-phenylureido)-phenyl]-4,4,4-trifluorobutyric Acid]",IC50,[1]; rhIDO1 enzyme assay,34.1 µM
same,melting point,,94.1 to 95.7 °C
same,IC50,[3],> 100 µM
"CC1CC(C)CN(c2ccc(C(CC(=O)O)C(F)(F)F)cc2NC(=O)Nc2ccc(C#N)cc2)C1 (stereo not drawn) [i12, 3-[3-[3-(4-cyanophenyl)ureido]-4-(3,5-dimethylpiperidin-1-yl)-phenyl]-4,4,4-trifluorobutyric Acid]",fold improvement in IDO1 inhibitory activity compared to compound i1,[1]; ratio of IDO1 enzyme IC50 values,100 fold
same,IDO1 inhibitory activity (in words),[1]; rhIDO1 enzyme assay,more potent IDO1 inhibitory activity than the unsubstituted i1
same,IC50,[1]; rhIDO1 enzyme assay,0.331 µM
same,IC50,[3],> 100 µM
same,tumor growth inhibition (TGI),"[4]; 15 mg/kg daily, oral, 17 days, tumor weight",40.5%
same,body weight compared with the control group,"[4]; i12 orally 15, 30 or 100 mg/kg, B16F10 xenograft mice",no obvious body weight difference; also recorded: no obvious reduction; also recorded: no significant changes
same,tumor growth inhibition (TGI),"[5]; 30 mg/kg daily, oral, 15 days, tumor weight",34.3%
same,body weight of each group after the treatment,"[5]; i12 orally 10, 30 or 100 mg/kg, PAN02 xenograft mice",no obvious body weight difference
same,AUC(0–∞),"[6]; PO 30 mg/kg, 30 mg/kg","12,849 h·ng/mL"
same,AUC(0-inf),"[6]; plasma, iv, 3 mg/kg, IV 3 mg/kg",2160 ng·h/mL
same,AUC(0-inf),"[6]; plasma, po, 30 mg/kg, PO 30 mg/kg",11500 ng·h/mL
same,AUC(0-t),"[6]; mouse, plasma, IV 3 mg/kg",1320 ng·h/mL
same,Cmax,"[6]; mouse, plasma, IV 3 mg/kg",6960 ng/mL
same,clearance,"[6]; mouse, plasma, IV 3 mg/kg, read-out: Cl (plasma clearance)",22.4 mL/min/kg
same,MRT inf,"[6]; mouse, plasma, IV 3 mg/kg",8.6 h
same,Vd,"[6]; mouse, plasma, IV 3 mg/kg, read-out: Vss",15.8 L/kg
same,half-life,"[6]; mouse, plasma, IV 3 mg/kg",7.17 h
same,AUC(0-t),"[6]; mouse, plasma, PO 30 mg/kg",11500 ng·h/mL
same,Cmax,"[6]; mouse, plasma, PO 30 mg/kg",2700 ng/mL
same,Tmax,"[6]; mouse, plasma, PO 30 mg/kg",2 h
same,bioavailability,"[6]; mouse, plasma, PO 30 mg/kg vs IV 3 mg/kg, read-out: F% (oral bioavailability)",87.4%
same,MRT inf,"[6]; mouse, plasma, PO 30 mg/kg",8.18 h
same,half-life,"[6]; mouse, plasma, PO 30 mg/kg",11.2 h
Cn1cc(C[C@@H](N)C(=O)O)c2ccccc21 [indoximod],IC50,[7],0.45 µM
